This assay has as its system EVPOME tissue-engineered constructs (primary human oral keratinocytes). Put plainly: Quantitative histology scoring (H&E) of rapamycin-treated tissue-engineered constructs. The class given is cell-based. The source says: A section was sliced across the construct, near the edge, fixed in 10% phosphate buffered formalin, and embedded in paraffin for hematoxylin and eosin (H&E) histology and immunohistochemistry (IHC). All the engineered tissues were sectioned for histological assessment and some for IHC imaging. Some engineered tissues were randomly selected for punch biopsies for WST-1 assay. The remaining intact constructs were non-invasively assessed with label-free optical imaging. For each construct, three sites were randomly selected for optical imaging. A tissue-engineered construct consists of three layers: keratin, living cellular, and dermal equivalent layer. Thus, for each site, one to two optical images were measured at lower and upper depths for the proliferating basal layer and the differentiating cellular layer respectively.
10 batches tissue-engineered constructs manufactured with cells from 10 independent patients were studied: 5 batches for the rapamycin experiment and 5 batches for the thermal-stress experiment. For the rapamycin experiment, 2 nM rapamycin was added in the medium at the cell culture stage for five days prior to tissue-stage culture and/or the tissue culture stage. Therefore, a total of four experimental conditions were created in the rapamycin experiment: • 1. Control+control: no rapamycin was added to the cultures during the two stages. • 2. Control+rapa: no rapamycin was added to the first cell culture stage medium; rapamycin was added to the second tissue culture stage medium. • 3. Rapa+control: rapamycin was added to the first cell culture stage medium; no rapamycin was added to the second tissue culture stage medium. • 4. Rapa+rapa: rapamycin was added to the medium used in both the culture stages.
All H&E histology slides were assessed by a panel of three blinded expert readers. Classification criteria were previously developed and detailed, where a viability score of 1 (least viable), 2, 3, 4, or 5 (most viable) was used. The classification criteria included the basal cell layer health, the construct cellular organization, and the keratin layer structural quality. The readers individually assigned a score to each EVPOME histology slide, while blinded to the construct condition and to the other readers' scores.
Quantitative histology scoring was performed to assess tissue morphology. Two groups of cultured cells were categorized: well-growing culture and poorly-growing culture. The well-growing and the poorly-growing cultures were defined by their control+control histology scores. A control+control score >3 is defined as well-growing. A control+control score <=3 is defined as poorly growing.

Take `CO[C@H]1C[C@@H]2CC[C@@H](C)[C@@](O)(O2)C(=O)C(=O)N2CCCC[C@H]2C(=O)O[C@H]([C@H](C)C[C@@H]2CC[C@@H](O)[C@H](OC)C2)CC(=O)[C@H](C)/C=C(\C)[C@@H](O)[C@@H](OC)C(=O)[C@H](C)C[C@H](C)/C=C/C=C/C=C/1C` [Rapamycin]: the histology score result is “<= 3” (control+rapa construct (2 nM rapamycin in tissue culture stage only), poorly-growing culture, score 1 to 5); 4.7 (rapa+control construct (2 nM rapamycin in cell culture stage only), poorly-growing culture, score 1 (least viable) to 5 (most viable)); “<= 3” (rapa+rapa construct (2 nM rapamycin in both culture stages), poorly-growing culture, score 1 to 5); greater than 3 (well-growing culture, all four constructs incl. rapa+control, control+rapa, rapa+rapa, score 1 to 5).

Values taken from patent US10281451B2, “Method of determining the viability of at least one cell” (The Regents of the University of Michigan, priority 2012, dated 2019).
